Experimental data reported in ChEMBL document CHEMBL3351388, “Identification of two novel RET kinase inhibitors through MCR-based drug discovery: design, synthesis and evaluation” (Eur J Med Chem, 2014).

Each compound was assayed against Proto-oncogene tyrosine-protein kinase receptor Ret (Homo sapiens, UniProt P07949) (assay: Inhibition of RET (unknown origin) pre-incubated for 60 mins before substrate addition in presence of 9 uM ATP by microfluidic assay).
Proto-oncogene tyrosine-protein kinase receptor Ret, sequence (P07949 whole entry): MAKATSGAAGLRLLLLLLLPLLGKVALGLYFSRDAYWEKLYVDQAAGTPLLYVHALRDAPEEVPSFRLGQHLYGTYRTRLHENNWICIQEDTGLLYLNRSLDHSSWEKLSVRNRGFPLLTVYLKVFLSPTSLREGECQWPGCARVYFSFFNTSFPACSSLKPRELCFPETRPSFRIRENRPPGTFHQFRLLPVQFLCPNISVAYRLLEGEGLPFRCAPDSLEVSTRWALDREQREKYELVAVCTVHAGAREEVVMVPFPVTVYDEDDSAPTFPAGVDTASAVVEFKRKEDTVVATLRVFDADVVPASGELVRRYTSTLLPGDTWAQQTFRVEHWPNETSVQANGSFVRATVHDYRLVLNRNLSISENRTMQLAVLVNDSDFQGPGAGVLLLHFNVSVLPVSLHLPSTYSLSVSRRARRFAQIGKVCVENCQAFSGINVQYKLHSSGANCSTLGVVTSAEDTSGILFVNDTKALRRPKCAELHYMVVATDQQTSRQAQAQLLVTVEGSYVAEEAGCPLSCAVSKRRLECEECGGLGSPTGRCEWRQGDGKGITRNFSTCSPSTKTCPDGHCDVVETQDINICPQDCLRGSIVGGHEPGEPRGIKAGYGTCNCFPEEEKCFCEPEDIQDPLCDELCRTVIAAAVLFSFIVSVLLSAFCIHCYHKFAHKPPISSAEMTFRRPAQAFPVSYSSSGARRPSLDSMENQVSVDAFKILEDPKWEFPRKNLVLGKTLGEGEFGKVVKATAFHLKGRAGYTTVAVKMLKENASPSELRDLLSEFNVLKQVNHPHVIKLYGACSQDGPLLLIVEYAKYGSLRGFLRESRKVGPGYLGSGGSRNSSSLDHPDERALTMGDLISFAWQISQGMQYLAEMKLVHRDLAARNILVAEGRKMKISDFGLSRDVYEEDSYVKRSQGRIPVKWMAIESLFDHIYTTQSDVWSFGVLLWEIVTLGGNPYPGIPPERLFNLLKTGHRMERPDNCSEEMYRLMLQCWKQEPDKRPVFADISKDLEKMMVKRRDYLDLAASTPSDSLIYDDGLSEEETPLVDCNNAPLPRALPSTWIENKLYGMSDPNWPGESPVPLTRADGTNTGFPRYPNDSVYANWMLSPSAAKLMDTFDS

IC50 [µM] | Structure (SMILES)
> 100 | O=C(Cc1ccc(-c2ccc3nccn3c2)cc1)Nc1cccc(Br)c1
> 100 | Cc1cccc(NC(=O)Cc2ccc(-c3ccc4nccn4c3)cc2)c1
> 100 | O=C(Cc1ccc(-c2ccc3nccn3c2)cc1)Nc1cccc(F)c1
